Key:
[1] = biological target: T1, Sodium/calcium exchanger 1 (Homo sapiens, UniProt P32418); assay: Forward Mode Assay: The assay is based on the monitoring of intracellular Ca2+concentrations using the PBX Calcium Assay Kit from BD (Becton, Dickinson and Company) with calcium indicator dye 51-9000177BKa (BD, 640177), CHO cells expressing NCX1 were loaded with the dye, and after a preincubation period with the test compound, lonomycin (Calbiochem, 407950) was added. Ionomycin is an ionophor for Ca2+ions mediating an increase of intracellular Ca2+ions. Consequently, intracellular Ca2+ions are exchanged against extracellular Na+ions (Ca2+efflux, forward mode). The decrease of intracellular Ca2+ions was detected by measuring the fluorescence of the calcium indicator dye at a wavelength of 520 nm by a FLIPR device.Briefly, similarly as for the reverse mode, for the forward mode transport assay 18000 cells per well were seeded into a 96 well microplate (Corning COSTAR 3904) and incubated overnight in culture medium (cf. above). A total volume of 100 ul medium per well was used.; type: cell-based
[2] = biological target: T1, Sodium/calcium exchanger 1; assay: Reverse Mode Assay: The assay is based on the monitoring of intracellular Ca2+concentrations using the calcium-sensitive dye Fluo-4. CHO cells expressing NCX1 were loaded with the dye by means of the acetoxymethyl ester Fluo-4 AM (Invitrogen, F14202), which is cleaved intracellularly by esterase activity to yield the charged species of free Fluo-4. After an preincubation period with the test compound, Gramicidine (Sigma, G5002) was added. Gramicidine is an ionophor for Na+ions mediating an increase of intracellular Na+ions. Consequently, intracellular Na+ions are exchanged against extracellular Ca2+ions (Ca2+influx, reverse mode). The intracellular elevation of Ca2+ ions was detected by measuring the fluorescence of Fluo-4 at a wavelength of 520 nm by a FLIPR device.Briefly, for the reverse mode transport assay 18000 cells per well were seeded into a 96 well microplate (Corning COSTAR 3904) and incubated overnight in culture medium (1x Nut Mix F12 (Ham) (Gibco, 21765-029); 10% (v/v) fetal calf serum.; type: cell-based

T1 sequence (P32418 36-973 limits assumed): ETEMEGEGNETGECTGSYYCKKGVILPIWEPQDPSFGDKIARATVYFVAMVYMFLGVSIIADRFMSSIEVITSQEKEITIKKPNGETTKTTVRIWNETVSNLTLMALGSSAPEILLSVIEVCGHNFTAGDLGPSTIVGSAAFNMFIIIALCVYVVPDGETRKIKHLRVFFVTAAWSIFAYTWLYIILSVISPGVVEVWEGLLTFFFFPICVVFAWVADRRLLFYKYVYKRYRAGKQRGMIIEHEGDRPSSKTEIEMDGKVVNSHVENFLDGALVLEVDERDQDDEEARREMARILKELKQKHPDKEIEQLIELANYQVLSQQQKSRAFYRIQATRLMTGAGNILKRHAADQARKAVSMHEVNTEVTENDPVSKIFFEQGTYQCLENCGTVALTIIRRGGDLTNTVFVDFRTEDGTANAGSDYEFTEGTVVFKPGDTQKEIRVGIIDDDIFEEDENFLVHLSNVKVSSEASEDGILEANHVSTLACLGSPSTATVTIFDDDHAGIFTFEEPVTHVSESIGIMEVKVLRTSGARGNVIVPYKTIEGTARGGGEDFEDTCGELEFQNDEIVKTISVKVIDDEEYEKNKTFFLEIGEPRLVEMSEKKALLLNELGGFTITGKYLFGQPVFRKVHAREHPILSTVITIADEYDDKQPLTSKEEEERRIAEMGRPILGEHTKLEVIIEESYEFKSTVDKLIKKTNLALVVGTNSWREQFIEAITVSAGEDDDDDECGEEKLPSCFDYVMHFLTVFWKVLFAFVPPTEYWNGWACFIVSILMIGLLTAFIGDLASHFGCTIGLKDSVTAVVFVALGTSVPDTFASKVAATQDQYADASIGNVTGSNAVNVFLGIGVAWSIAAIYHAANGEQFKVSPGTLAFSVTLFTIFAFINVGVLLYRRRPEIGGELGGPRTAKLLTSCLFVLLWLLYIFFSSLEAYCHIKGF

| IC50 [1] [nM] | Compound | IC50 [2] [nM] |
| --- | --- | --- |
| 1900 | Cc1ccccc1C1CCc2cc(Oc3ncc(C(=O)NCc4ccnc(Cl)c4)s3)ccc2O1 (configuration not stated) |  |
|  | NCCCNC(=O)c1cnc(Oc2ccc3c(c2)CC[C@@H](c2ccccc2)O3)s1 | 300 |
